What is called viability is the share of living cells, or the viability signal relative to a control. The IC50 is the concentration needed to halve the response being measured. The GI50 is the concentration at which growth is held to half of that of the control. Broadly, the melting point is the temperature of the solid-liquid transition.

Results on seven molecules are retold here after PMC11393688, “Design and synthesis of new 1,2,4-oxadiazole/quinazoline-4-one hybrids with antiproliferative activity as multitargeted inhibitors” (Frontiers in Chemistry, 2024).

For data set [1], the system named is wild-type BRAF. More on the design: method as in Okaniwa et al., 2012; Zhang et al., 2013. The following applies: ref Okaniwa et al., 2012; Zhang et al., 2013; cited from earlier work.
For data set [2], the target named is T1, EGFR (Homo sapiens, UniProt P00533).
T1 construct: amino acids 645–1186; His6 (N); made in house; host or cells: Sf-9 insect cells (baculovirus; pBlueBacHis2B / pFASTBacHTc)
T1 sequence (P00533 669-1210): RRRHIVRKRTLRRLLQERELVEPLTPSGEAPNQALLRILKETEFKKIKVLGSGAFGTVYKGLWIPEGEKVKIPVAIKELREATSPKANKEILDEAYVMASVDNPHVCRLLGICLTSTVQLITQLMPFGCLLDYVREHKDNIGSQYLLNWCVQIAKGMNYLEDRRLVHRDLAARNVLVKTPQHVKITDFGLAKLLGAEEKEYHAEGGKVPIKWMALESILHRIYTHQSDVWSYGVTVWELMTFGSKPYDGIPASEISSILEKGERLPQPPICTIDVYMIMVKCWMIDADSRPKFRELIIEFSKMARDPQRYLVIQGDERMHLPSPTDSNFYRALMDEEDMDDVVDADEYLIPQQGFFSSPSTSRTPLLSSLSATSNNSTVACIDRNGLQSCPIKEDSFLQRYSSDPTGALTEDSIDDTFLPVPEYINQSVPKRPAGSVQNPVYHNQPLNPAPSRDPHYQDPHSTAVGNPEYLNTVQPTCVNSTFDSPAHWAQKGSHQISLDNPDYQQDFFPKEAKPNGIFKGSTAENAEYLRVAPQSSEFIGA
Set-up: method as in Okaniwa et al., 2012; Zhang et al., 2013. The following applies: ref Okaniwa et al., 2012; Zhang et al., 2013; cited from earlier work.

Data set [3] in a line: Cell viability, MTT test on normal cell line. In kind it is cell-based. The conditions noted are these: human, MCF-10A mammary gland epithelial cells (normal cell line), MCF-10A normal cells, 4 days incubation. The protocol: The human mammary gland epithelial (MCF-10A) normal cell line was used to test the viability of novel compounds 9a-o ([Mahmoud et al., 2022]; [Mekheimer et al., 2022]). After 4 days of incubation on MCF-10A cells, the cell viability of compounds 9a-o was determined using the MTT test.
The human mammary gland epithelial (MCF-10A) normal cell line was used to test the viability of compounds 9a-o ([Mahmoud et al., 2022]; [Mekheimer et al., 2022]). Refer to Supplementary Appendix A (Supplementary Material) for more details.
4.2. Biological evaluation
4.2.1. Cytotoxic activity using MTT Assay and evaluation of IC50
MTT assay was carried out to study the effect of compounds on mammary epithelial cells (MCF-10A). The medium in which cells were propagated contained Dulbecco's modified Eagle's medium (DMEM)/ Ham's F-12 medium (1:1) supplemented with epidermal growth factor (20 ng/mL), hydrocortisone (500 ng/mL), insulin (10 μg/mL), 2 mM glutamine and 10% foetal calf serum.
After every 2-3 days, the cells were passaged using trypsin ethylenediamine tetra acetic acid (EDTA). The cells were seeded at a density of 10^4 cells mL-1 in flat-bottomed culture plates containing 96 wells each. After 24 h, medium was removed from the plates and the compounds in (in 0.1% DMSO) were added (in 200 μL medium to yield a final concentration of 0.1% v/v) to the wells of plates. A single compound was designated with four wells followed by incubation of plates for 96h at 37°C. After incubation, medium was removed completely from the plates followed by addition of MTT (0.4 mg/mL in medium) to each well and subsequent incubation of plates for 3h. MTT (along with the medium) was removed and DMSO (150μL) was added to each well of the culture plates, followed by vertexing and subsequent measurement of absorbance (at 540 nm) using microplate reader. The data are shown as percentage inhibition of proliferation in comparison with controls containing 0.1% DMSO.

Data set [4] has as its system lung cancer (A-549) cell line. Put plainly: Antiproliferative MTT assay, A-549. In kind it is cell-based. The conditions noted are these: Homo sapiens, A549, A-549 lung cancer cells, read-out: Antiproliferative activity IC50 ± SEM A-549. The protocol:
(§1) 4.2.1.2. Assay for antiproliferative effect
(§2) To explore the antiproliferative potential of compounds MTT assay was performed according to previously reported procedure using different cell lines to explore the antiproliferative potential of […]
(§3) calculate the total nuclear DNA, a fluorescent dye (propidium iodide, PI) is used which can attach to the DNA, thus offering a quick and precise technique. PI cannot pass through the cell membrane and its signal intensity can be considered as directly proportional to quantity of cellular DNA.
(§4) Cells whose cell membranes are damaged or have changed permeability are counted as dead ones.
(§5) The assay was performed by seeding the cells of different cell lines at a density of 3000-7500 cells/well (in 200µl medium) in culture plates followed by incubation for 24h at 37 °C in humidified 5% CO2/95% air atmospheric conditions. The medium was removed; the compounds were added to the plates at 10 µM concentrations (in 0.1% DMSO) in triplicates, followed by incubation for 48 h. DMSO (0.1%) was used as control. After incubation, medium was removed […]
(§6) 80 °C, the plates were allowed to freeze for 24 h, followed by thawing at 25 °C. […]
(§7) (Polar-Star BMG Tech) was used to record the readings at excitation and emission wavelengths of 530 and 620 nm for each well. The percentage cytotoxicity of compounds was calculated using […]
(§8) Where ATC= Absorbance of treated cells and AC= Absorbance of control. Erlotinib was used as positive control in the assay.

The test system of data set [5] is breast cancer (MCF-7) cell line. Put plainly: Antiproliferative MTT assay, MCF-7. Type of data set: cell-based. The conditions noted are these: Homo sapiens, MCF7, MCF-7 breast cancer cells, read-out: Antiproliferative activity IC50 ± SEM MCF-7. The protocol: as §1, §2, §3, §4, §5, §6, §7, §8
On the technique in general: Tetrazolium assays rely on reduction of a dye to a coloured formazan, in cell work by metabolically active cells.

The test system of data set [6] is pancreatic cancer (Panc-1) cell line. Put plainly: Antiproliferative MTT assay, Panc-1. In kind it is cell-based. The conditions noted are these: Homo sapiens, Panc-1 pancreatic cancer cells, read-out: Antiproliferative activity IC50 ± SEM Panc-1. As to the method: as §1, §2, §3, §4, §5, §6, §7, §8
The test system of data set [7] is four human cancer cell lines (HT-29, Panc-1, A-549, MCF-7). Put plainly: Average antiproliferative activity (GI50) over four cancer cell lines. In kind it is cell-based. The conditions noted are these: average IC50 against the four cancer cell lines. The protocol: as §1, §2, §3, §4, §5, §6, §7, §8
Data set [8] addresses T1, EGFR. Put plainly: EGFR-TK inhibitory assay. Type of data set: biochemical. The conditions noted are these: read-out: EGFR inhibition IC50 ± SEM. The protocol:
4.2.1.3. EGFR inhibitory assay
Sf-9 cells were infected for 72h for protein expression. […]
centrifugation for 20 min.
Histidine-linked proteins were first eluted with 250 and then […]
using wash buffer. Europium-tagged antiphosphotyrosine antibody (75 µL, 400 ng) was added to each well followed by incubation of 1h and then washing of the plates using buffer. The enhancement solution was added to each well and the signal was recorded at excitation and […]
The autophosphorylation percentage inhibition by compounds was calculated using the following equation: […]
(1 picture or pasted object on this page, not shown here)

The target in data set [9] is T2, BRAF^V600E (Homo sapiens, UniProt P15056, V600E).
T2 construct: Mouse full-length GST-tagged BRAFV600E; GST; purchased Invitrogen PV3849
T2 sequence (P15056 2-766 V600E limits assumed): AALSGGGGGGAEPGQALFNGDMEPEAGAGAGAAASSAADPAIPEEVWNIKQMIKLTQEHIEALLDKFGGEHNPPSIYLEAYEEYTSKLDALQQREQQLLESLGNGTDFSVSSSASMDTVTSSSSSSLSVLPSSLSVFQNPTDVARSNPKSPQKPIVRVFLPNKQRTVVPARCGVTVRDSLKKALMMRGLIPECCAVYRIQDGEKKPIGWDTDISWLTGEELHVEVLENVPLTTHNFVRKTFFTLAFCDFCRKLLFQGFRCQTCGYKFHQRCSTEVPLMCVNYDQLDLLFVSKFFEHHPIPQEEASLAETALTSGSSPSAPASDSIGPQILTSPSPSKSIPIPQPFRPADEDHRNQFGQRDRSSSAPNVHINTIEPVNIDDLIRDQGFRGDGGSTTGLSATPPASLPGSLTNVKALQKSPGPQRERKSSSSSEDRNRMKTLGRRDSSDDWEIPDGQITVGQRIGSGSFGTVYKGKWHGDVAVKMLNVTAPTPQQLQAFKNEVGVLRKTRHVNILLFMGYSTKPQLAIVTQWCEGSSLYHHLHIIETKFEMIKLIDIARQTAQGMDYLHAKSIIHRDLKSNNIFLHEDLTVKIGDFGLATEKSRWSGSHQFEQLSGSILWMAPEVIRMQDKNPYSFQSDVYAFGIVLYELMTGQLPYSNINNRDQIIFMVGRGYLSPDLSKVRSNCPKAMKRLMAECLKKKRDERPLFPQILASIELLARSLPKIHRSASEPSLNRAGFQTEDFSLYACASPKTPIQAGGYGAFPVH
Nature of the data set: BRAF^V600E kinase inhibitory assay. The following applies: read-out: BRAF^V600E inhibition IC50 ± SEM. In kind it is biochemical, Mouse. The protocol:
Refer to Supplementary Appendix A for more details. […]
4.2.1.4. BRAF kinase assay […]
against BRAF. Mouse full-length GST-tagged BRAFV600E (7.5 ng, Invitrogen, PV3849) was pre-incubated with drug (1 µL) and assay dilution buffer (4 µL) for 60 min at 25 °C. In assay dilution buffer, a solution (5 µL) containing MgCl2 (30 mM), ATP (200 µM), recombinant human full length (200 ng) […] N-terminal His-tagged MEK1 (Invitrogen) was added to start the assay, subsequent to incubation for 25 min at 25 °C. The assay was stopped using 5X protein denaturing buffer (LDS) solution (5 µL). To further denature the protein, heat (70° C) was applied for 5 min.
10 µL of each reaction was loaded into the precast plates and electrophoresis was allowed to proceed. After completion of electrophoresis, the front part of the precast gel plate (holding hot ATP) was cut and afterwards cast-off. The dried gel was developed using a phosphor screen. A […]
served as positive control. […]
(FITC) and propidium iodide (PI) staining kit (BD Pharmingen, San Diego, USA). […]
4.3. Statistical analysis
Computerized Prism 5 program was used to statistically analyzed data using one-way ANOVA test followed by Tukey’s as post ANOVA for multiple comparison at P ≤.05. Data were presented

Data set [10] concerns colon cancer (HT-29) cell line. Put plainly: Antiproliferative MTT assay, HT-29. In kind it is cell-based. The conditions noted are these: Homo sapiens, HT-29 colon cancer cells, read-out: Antiproliferative activity IC50 ± SEM HT-29.
Data set [11] has as its target EGFR^T790M (Homo sapiens, UniProt P00533, T790M). Put plainly: EGFR^T790M inhibitory assay (HTRF KinEASE-TK).
Data set [12] concerns various cancer cell lines. More on the design: method as in Hisham et al., 2022; Hisham et al., 2023. The following applies: ref Hisham et al., 2022, 2023; cited from earlier work.
Data set [13] has as its system BRAF^V600E. Set-up: method as in Hisham et al., 2022; Hisham et al., 2023. The following applies: ref Hisham et al., 2022, 2023, read-out: IC50 against BRAF^V600E; cited from earlier work.

Molecules are shown by their SMILES.

EGFR^T790M, sequence (P00533 25-1210 T790M): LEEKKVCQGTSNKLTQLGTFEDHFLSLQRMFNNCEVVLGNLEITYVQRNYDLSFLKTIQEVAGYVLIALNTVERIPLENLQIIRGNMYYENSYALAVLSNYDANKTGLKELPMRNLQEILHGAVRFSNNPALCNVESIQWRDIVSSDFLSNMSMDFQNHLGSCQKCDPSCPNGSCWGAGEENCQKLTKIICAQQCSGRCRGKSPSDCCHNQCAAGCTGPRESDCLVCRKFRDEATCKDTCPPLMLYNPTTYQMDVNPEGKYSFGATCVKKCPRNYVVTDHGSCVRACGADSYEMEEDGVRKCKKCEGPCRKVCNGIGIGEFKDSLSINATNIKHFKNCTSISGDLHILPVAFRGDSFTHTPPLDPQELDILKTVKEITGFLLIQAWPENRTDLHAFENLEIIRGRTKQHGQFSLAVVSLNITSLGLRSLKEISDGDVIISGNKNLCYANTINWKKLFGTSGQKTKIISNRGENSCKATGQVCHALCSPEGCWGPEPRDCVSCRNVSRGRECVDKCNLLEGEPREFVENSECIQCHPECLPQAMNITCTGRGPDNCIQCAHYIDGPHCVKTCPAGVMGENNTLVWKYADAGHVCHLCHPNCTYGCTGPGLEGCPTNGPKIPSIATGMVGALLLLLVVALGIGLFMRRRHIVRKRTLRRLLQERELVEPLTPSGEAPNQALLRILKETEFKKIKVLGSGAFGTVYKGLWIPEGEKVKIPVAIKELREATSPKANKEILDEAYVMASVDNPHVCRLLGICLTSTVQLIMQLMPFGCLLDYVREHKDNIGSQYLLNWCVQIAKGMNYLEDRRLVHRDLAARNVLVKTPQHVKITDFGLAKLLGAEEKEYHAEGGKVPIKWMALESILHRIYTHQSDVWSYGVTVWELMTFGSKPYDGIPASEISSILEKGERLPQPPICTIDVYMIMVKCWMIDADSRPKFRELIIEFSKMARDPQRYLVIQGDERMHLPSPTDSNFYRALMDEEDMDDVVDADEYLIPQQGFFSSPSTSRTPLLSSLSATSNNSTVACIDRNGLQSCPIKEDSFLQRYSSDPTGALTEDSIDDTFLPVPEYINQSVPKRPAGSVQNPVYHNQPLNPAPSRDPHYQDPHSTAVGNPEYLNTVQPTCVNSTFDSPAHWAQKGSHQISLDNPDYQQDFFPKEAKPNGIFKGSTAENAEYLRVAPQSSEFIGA

For the molecule `COc1cc2ncnc(Nc3cccc(NC(=O)Nc4ccc(Cl)c(C(F)(F)F)c4)c3)c2cc1OCCCN1CCOCC1` [I], in [1], the “IC50 against wild-type BRAF” value was “nanomolar range”. For the same molecule, the “IC50 against EGFR” value in data set [2] is given as “nanomolar range”.

Consider `CCn1c(SCc2nc(-c3ccc(OC)cc3)no2)nc2ccccc2c1=O` [Compound 9l, 2-((3-(4-Methoxyphenyl)-1,2,4-oxadiazol-5-yl)methylthio)-3-ethylquinazolin-4(3H)-one], for which the melting point was 134 to 136 °C. In addition, the viability at 96 h, 50 µM in [3] was 90%. The IC50 in data set [4] was 36 ± 3 nM. The IC50 in [5] stood at 40 ± 4 nM. The IC50 in data set [6] came out at 38 ± 3 nM. The molecule further showed a GI50 in data set [7] of 38 nM. Moreover, in [8], the IC50 worked out at 91 ± 7 nM. In addition, the IC50 in data set [9] was 70 ± 5 nM. Also, the 50% inhibitory concentration (IC50) in data set [10] was determined as 37 ± 3 nM.

For the molecule `CCn1c(SCc2nc(-c3ccc(Cl)cc3)no2)nc2ccccc2c1=O` [Compound 9k, 2-((3-(4-Chlorophenyl)-1,2,4-oxadiazol-5-yl)methylthio)-3-ethylquinazolin-4(3H)-one], the melting point was in the range of 118 to 120 °C. The molecule also registered a viability at 96 h, 50 µM in [3] of 93%. Besides, the IC50 in data set [4] was 32 ± 3 nM. The IC50 in data set [5] was found to be 35 ± 3 nM. Also, in data set [6], the IC50 stood at 34 ± 3 nM. Further, in data set [7], it took 34 nM to inhibit growth by half (GI50). Besides, the IC50 in [8] was 84 ± 6 nM. In addition, in [9], the IC50 came to 62 ± 5 nM. Moreover, the IC50 in data set [10] is 34 ± 3 nM.

As for `Cc1cccc(-n2c(SCc3nc(-c4ccc(Cl)cc4)no3)nc3ccccc3c2=O)c1` [Compound 9h, 2-((3-(4-Chlorophenyl)-1,2,4-oxadiazol-5-yl)methylthio)-3-m-tolylquinazolin-4(3H)-one], the melting point fell in the range of 178 to 180 °C. This molecule returned a viability at 96 h, 50 µM in [3] of 89%. Further, the IC50 in data set [4] worked out at 28 ± 2 nM. Moreover, the IC50 in [5] came to 31 ± 3 nM. Besides, the IC50 in data set [6] is 29 ± 2 nM. Also, the GI50 in [7] turned out to be 30 nM. The IC50 in data set [8] was 72 ± 5 nM. In addition, the IC50 in data set [9] came to 57 ± 5 nM. Besides, in [10], the IC50 worked out at 30 ± 3 nM. In [11], this molecule displayed a half-maximal inhibitory concentration (IC50) of 15 ± 2 nM.

For the molecule `COc1ccc(-c2noc(CSc3nc4ccccc4c(=O)n3-c3ccccc3)n2)cc1` [Compound 9c, 2-((3-(4-Methoxyphenyl)-1,2,4-oxadiazol-5-yl)methylthio)-3-phenylquinazolin-4(3H)-one], the melting point lay within 186 to 188 °C. This molecule also displayed a viability at 96 h, 50 µM in data set [3] of 91%. Further, the half-maximal inhibitory concentration (IC50) in [4] is 24 ± 2 nM. Further, the 50% inhibitory concentration (IC50) in data set [5] came to 28 ± 3 nM. The 50% inhibitory concentration (IC50) in data set [6] amounted to 26 ± 2 nM. This molecule showed a GI50 in [7] of 26 nM. Besides, in data set [8], the IC50 was determined as 64 ± 5 nM. Further, the IC50 in data set [9] amounted to 51 ± 5 nM. The IC50 in [10] was found to be 25 ± 2 nM. This molecule showed an IC50 in data set [11] of 11 ± 2 nM.

Regarding `COc1cccc2c1C(=O)c1c(O)c3c(c(O)c1C2=O)C[C@@](O)(C(=O)CO)C[C@@H]3O[C@H]1C[C@H](N)[C@H](O)[C@H](C)O1` [Doxorubicin], the GI50 in data set [12] was 1140 nM.

As for `C=CCn1c(SCC(=O)Nc2cccc(C(=O)/C=C/c3ccc(OC)cc3)c2)nc2ccccc2c1=O` [IX], the GI50 in [12] was 1160 nM. Besides, the IC50 in data set [13] was 650 nM.
